The source of these data is ChEMBL document CHEMBL1909046, “DrugMatrix in vitro pharmacology data”.

One may read the IC50 as the concentration at which inhibition is half-maximal. Low readings indicate greater potency in that assay, high ones weaker potency in that assay. A word on the Ki: it is a measure of affinity in units of concentration, obtained from inhibition or displacement. Low values mean higher affinity, high ones lower affinity.

Experiment [1] deals with T1, Estrogen receptor (Homo sapiens, UniProt P03372).
T1 sequence (P03372 whole entry): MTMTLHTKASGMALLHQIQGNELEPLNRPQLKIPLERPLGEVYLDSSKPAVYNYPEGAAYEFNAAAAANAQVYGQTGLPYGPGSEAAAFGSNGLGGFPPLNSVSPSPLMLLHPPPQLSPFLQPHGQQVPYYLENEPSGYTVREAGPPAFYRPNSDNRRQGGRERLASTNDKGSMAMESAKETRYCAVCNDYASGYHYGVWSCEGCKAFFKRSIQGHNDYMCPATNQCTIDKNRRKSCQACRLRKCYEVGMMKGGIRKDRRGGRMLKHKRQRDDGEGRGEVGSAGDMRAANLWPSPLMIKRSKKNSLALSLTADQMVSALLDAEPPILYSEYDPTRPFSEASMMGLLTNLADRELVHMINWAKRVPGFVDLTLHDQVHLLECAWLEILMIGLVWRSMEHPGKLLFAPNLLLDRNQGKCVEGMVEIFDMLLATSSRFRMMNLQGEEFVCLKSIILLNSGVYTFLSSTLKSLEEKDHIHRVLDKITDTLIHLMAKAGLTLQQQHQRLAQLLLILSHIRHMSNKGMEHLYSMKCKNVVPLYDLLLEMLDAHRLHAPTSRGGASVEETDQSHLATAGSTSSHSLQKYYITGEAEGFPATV
Description: biochemical.

For experiment [2], the target named is Cytochrome P450 2C9 (Homo sapiens, UniProt P11712).
For experiment [3], the target named is T2, Cytochrome P450 1A2 (Homo sapiens, UniProt P05177).
T2 sequence (P05177 whole entry): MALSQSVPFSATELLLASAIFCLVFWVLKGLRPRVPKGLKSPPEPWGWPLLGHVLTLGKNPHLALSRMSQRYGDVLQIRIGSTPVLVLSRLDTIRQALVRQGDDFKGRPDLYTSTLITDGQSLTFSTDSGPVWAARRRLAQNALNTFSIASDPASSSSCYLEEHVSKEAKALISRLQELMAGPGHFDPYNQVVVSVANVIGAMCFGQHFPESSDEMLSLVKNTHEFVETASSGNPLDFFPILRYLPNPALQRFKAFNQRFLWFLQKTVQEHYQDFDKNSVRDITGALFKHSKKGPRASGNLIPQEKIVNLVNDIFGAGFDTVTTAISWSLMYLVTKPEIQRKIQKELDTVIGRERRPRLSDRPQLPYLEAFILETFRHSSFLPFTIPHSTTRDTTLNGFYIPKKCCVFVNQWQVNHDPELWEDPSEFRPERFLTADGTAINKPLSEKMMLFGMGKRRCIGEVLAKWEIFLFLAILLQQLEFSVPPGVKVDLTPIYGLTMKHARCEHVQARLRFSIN

Cytochrome P450 2C9, sequence (P11712 whole entry): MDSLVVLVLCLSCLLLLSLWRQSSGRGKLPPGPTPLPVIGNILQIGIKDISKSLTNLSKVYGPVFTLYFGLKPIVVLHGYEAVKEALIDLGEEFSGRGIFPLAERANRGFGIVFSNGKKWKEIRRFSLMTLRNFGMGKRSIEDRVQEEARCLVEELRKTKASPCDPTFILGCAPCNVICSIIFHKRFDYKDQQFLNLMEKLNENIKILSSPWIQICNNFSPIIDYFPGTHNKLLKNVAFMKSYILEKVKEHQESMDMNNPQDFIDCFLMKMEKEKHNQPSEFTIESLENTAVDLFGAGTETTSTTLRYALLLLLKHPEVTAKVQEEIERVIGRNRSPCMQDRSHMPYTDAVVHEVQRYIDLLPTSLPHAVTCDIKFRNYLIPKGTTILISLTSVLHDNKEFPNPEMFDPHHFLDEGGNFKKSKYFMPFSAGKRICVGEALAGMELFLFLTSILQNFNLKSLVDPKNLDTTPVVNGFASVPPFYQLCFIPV

Regarding `CC[C@]1(O)CC[C@H]2[C@@H]3CCC4=CCCC[C@@H]4[C@H]3CC[C@@]21C`, in experiment [1], the midpoint of inhibition, the IC50, lay at 1.12 µM and the Ki worked out at 0.32 µM.
Compound `O=C(c1ccccc1Cl)N1CCC(Cc2ccccc2)CC1` showed an IC50 in experiment [2] of 2 µM.
Consider `O=C(/C=C/c1ccc(O)c(O)c1)OCCc1ccccc1` [CAFFEIC ACID PHENETHYL ESTER], for which, in experiment [1], the IC50 amounted to 7.91 µM and the affinity, expressed as Ki, was 2.26 µM.
In experiment [3], `COc1cc(CNC(=O)CCCC/C=C/C(C)C)ccc1O` [CAPSAICIN] returned an IC50 of 3 µM.
In experiment [1], `C#C[C@]1(O)CC[C@H]2[C@@H]3CCC4=Cc5oncc5C[C@]4(C)[C@H]3CC[C@@]21C` [DANAZOL] had an IC50 of 17.8 µM and a Ki of 5.08 µM.
In the case of `CC(=O)O[C@]1(C(C)=O)CC[C@H]2[C@@H]3C=C(C)C4=CC(=O)CC[C@]4(C)[C@H]3CC[C@@]21C` [MEGESTROL ACETATE], in experiment [2], the IC50 turned out to be 10 µM.
`COc1ccc2cc(CCC(C)=O)ccc2c1` [NABUMETONE] showed an IC50 in experiment [3] of 5 µM.
